Here are results for five compounds from ChEMBL document CHEMBL1150045, “Callyspongenols A-C, new cytotoxic C22-polyacetylenic alcohols from a red sea sponge, Callyspongia species” (J Nat Prod, 2003).

Test [1] deals with HeLa. Put plainly: Cytotoxicity against human HeLa cells. The format is functional, cell-based.
For test [2], the system named is P388. The test can be described thus: Cytotoxicity against mouse P388 cells. It counts as functional, cell-based.

≈ marks a conversion by molar mass, not a printed value.

What is called IC50 is the midpoint of a concentration-inhibition curve. `C#C/C=C\CCCCC#CCCCCC#CCCCC#CCO`: the figures for the 50% inhibitory concentration (IC50) in test [1] and in test [2] were 4.5 µg/mL (≈ 14.6 µM) and 2.2 µg/mL (≈ 7.13 µM), respectively.
As for `C#C/C=C\CCCC/C=C\C#CC#CCCC/C=C\C#CCO` [CALLYSPONGENOL C], the values for the IC50 in test [1] and in test [2] were 3.9 µg/mL (≈ 12.8 µM) and 2.2 µg/mL (≈ 7.23 µM), respectively.
On to `COc1cccc2c1C(=O)c1c(O)c3c(c(O)c1C2=O)C[C@@](O)(C(=O)CO)C[C@@H]3O[C@H]1C[C@H](N)[C@H](O)[C@H](C)O1` [DOXORUBICIN], for which the concentration for half-maximal inhibition (IC50) in test [1] came to 0.066 µg/mL (≈ 0.121 µM); in test [2], 0.04 µg/mL (≈ 0.0736 µM).
For `C#C/C=C\CCCCC#CC#CC#CCCC/C=C\C#CCO` [DEHYDROISOPHONOCHALYNOL] the same measures were 5.1 µg/mL (≈ 16.9 µM) and 2.2 µg/mL (≈ 7.27 µM).
Consider `C#C/C=C\CCCCCCC#CC#CCCC/C=C\C#CCO` [CALLYSPONGENOL B], for which the IC50 in test [1] and in test [2] was 10 µg/mL (≈ 32.6 µM) in each case.
